ChEMBL document CHEMBL4808219, “Exploration of Benzo[b]carbazole-6,11-diones as anticancer agents: Synthesis and studies of hTopoIIα inhibition and apoptotic effects” (Bioorg Med Chem Lett, 2021)
Calls of active or inactive are those of the source. The calls are words filed in the database; no cut-off is given here.

Legend:
HEK-293T = assay: Cytotoxicity against human HEK293T cells assessed as reduction in cell viability incubated for 48 hrs by MTT assay; assay type: cell-based
MDA-MB-231 [1] = assay: Cytotoxicity against human MDA-MB-231 cells assessed as reduction in cell viability incubated for 48 hrs by MTT assay; assay type: functional, cell-based
MCF7 = assay: Cytotoxicity against human MCF7 cells assessed as reduction in cell viability incubated for 48 hrs by MTT assay; assay type: functional, cell-based
[2] = Cytotoxicity against human H357 cells assessed as reduction in cell viability incubated for 48 hrs by MTT assay; assay type: functional, cell-based
[3] = target: DNA topoisomerase 2-alpha (Homo sapiens) (UniProt P11388); assay: Inhibition of human topoisomerase 2alpha assessed as reduction in decatenation of kinetoplast DNA by agarose gel electrophoresis method
DNA topoisomerase 2-alpha (Homo sapiens), sequence (P11388 whole entry): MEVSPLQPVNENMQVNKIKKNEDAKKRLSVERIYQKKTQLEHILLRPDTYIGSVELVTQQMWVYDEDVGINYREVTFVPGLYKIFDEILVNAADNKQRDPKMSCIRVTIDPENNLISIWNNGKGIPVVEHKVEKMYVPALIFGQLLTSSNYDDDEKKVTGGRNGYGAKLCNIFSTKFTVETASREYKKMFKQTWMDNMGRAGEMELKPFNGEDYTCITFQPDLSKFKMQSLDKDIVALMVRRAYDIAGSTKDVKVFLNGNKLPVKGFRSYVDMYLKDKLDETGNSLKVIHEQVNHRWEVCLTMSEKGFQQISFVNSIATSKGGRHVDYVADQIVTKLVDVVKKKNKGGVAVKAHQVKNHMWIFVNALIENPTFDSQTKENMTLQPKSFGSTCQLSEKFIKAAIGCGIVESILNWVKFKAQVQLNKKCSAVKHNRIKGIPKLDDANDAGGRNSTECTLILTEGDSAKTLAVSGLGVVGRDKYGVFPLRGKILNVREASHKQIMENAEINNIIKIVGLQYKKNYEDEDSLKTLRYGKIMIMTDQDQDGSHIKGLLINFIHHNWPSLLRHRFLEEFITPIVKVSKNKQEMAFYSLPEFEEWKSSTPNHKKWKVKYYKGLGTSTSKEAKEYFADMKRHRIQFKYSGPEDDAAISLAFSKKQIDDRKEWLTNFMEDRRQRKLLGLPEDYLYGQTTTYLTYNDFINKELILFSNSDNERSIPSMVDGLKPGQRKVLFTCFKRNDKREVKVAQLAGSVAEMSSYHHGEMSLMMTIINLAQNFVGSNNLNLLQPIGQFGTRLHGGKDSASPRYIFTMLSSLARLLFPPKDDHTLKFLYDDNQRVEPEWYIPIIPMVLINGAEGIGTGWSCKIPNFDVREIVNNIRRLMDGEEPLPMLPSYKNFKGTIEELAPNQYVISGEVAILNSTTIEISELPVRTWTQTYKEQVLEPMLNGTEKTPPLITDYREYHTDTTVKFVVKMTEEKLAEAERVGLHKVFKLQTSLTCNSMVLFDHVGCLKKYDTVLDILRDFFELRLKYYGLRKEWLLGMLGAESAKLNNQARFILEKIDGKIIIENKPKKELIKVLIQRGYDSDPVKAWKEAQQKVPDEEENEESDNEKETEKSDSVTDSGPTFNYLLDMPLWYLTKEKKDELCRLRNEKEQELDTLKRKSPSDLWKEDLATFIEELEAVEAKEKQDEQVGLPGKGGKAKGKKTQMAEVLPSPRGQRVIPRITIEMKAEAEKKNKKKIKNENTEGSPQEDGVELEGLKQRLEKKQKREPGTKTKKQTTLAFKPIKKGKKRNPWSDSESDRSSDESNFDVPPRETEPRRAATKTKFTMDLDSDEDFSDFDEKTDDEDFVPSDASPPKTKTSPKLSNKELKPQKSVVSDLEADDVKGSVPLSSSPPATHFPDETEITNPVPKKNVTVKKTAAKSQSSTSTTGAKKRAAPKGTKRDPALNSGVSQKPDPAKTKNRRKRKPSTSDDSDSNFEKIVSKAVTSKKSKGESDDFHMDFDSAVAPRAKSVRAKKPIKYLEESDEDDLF

MCF-10A = assay: Cytotoxicity against human MCF-10A cells; assay type: cell-based
MDA-MB-231 [4] = assay: Cytotoxicity against human MDA-MB-231 cells assessed as reduction in cell survival by clonogenic assay; assay type: functional, cell-based
[5] = Homo sapiens, MDA-MB-231, 48 h, read-out: IC50
[6] = Homo sapiens, MCF7, 48 h, read-out: IC50
[7] = Homo sapiens, H357, 48 h, read-out: IC50

Compound	IC50 (HEK-293T) [µM]	IC50 (MDA-MB-231 [1]; [5]) [µM]	IC50 (MCF7; [6]) [µM]	IC50 [2, 7] [µM]	inhibition [3]	IC50 (MCF-10A) [µM]	IC50 (MDA-MB-231 [4]) [µM]	IC50 (MDA-MB-231 [1]; mda-mb-231)	IC50 (MCF7; mcf7)	IC50 ([2]; h357)
O=C1C=C(NCCCO)C(=O)c2ccccc21	10.3	9.8	9.6	9.9						
O=C1C=C(Nc2ccc(Cl)cc2)C(=O)c2ccccc21	4.9	3.9	4.1	4.8						
COc1cccc2c1C(=O)c1c([nH]c3ccccc13)C2=O	10.4	8.9	9.8	10.5						
Cn1c2c(c3ccccc31)C(=O)c1ccccc1C2=O	8.4	6.5	5.4	7.3	Active					
Cc1ccc2[nH]c3c(c2c1)C(=O)c1ccccc1C3=O	8	4.9	5.2	6.1	Active					
COc1cc2[nH]c3c(c2cc1OC)C(=O)c1ccccc1C3=O	10.2	7.4	8.4	8.7						
O=C1C=C(Nc2ccccc2)C(=O)c2ccccc21	5.6	5.3	4.4	4.2						
COc1cc2[nH]c3c(c2c(OC)c1OC)C(=O)c1ccccc1C3=O	10.5	8.1	8.2	9.4	Active					
COc1cc(NC2=CC(=O)c3ccccc3C2=O)cc(OC)c1OC	8.4	6.9	7	6.8						
CN1CCN(CCCNC2=CC(=O)c3ccccc3C2=O)CC1	10.9	10	10.4	10.9						
COc1cc([C@@H]2c3cc4c(cc3[C@@H](O[C@@H]3O[C@@H]5CO[C@@H](C)O[C@H]5[C@H](O)[C@H]3O)[C@H]3COC(=O)[C@H]23)OCO4)cc(OC)c1O [ETOPOSIDE]	22	48	45	32		> 120	42			
CN(C)CCCNC1=CC(=O)c2ccccc2C1=O	8.1	6.4	6.3	7.3						
CCC(C)c1ccc2[nH]c3c(c2c1)C(=O)c1ccccc1C3=O (configuration not stated)	9	5.4	6.3	7.1	Active					
COc1cc2[nH]c3c(c2c(OC)c1OC)C(=O)c1c(OC)cccc1C3=O								Not Active	Not Active	Not Active
COc1ccc(NC2=CC(=O)c3ccccc3C2=O)cc1	5.5	4.8	4.5	4.6						
O=C1c2ccccc2C(=O)c2c1[nH]c1ccccc21 [BENZOCARBAZOLEDIONE]	5.8	5.2	4.5	5						
Cc1cc2[nH]c3c(c2cc1C)C(=O)c1ccccc1C3=O	7	6.3	4.2	6.1						
O=C1C=C(Nc2ccc(F)c(F)c2)C(=O)c2ccccc21	9.4	7	7.2	8.4						
CCC(C)c1ccc(NC2=CC(=O)c3ccccc3C2=O)cc1 (configuration not stated)	5.2	4.2	4.2	4						
O=C1C=C(Nc2ccc3c(c2)OCO3)C(=O)c2ccccc21	10.2	9.4	9.6	10.4						

Compound	IC50 (HEK-293T) [µM]	IC50 (MDA-MB-231 [1]; [5]) [µM]	IC50 (MCF7; [6]) [µM]	IC50 [2, 7] [µM]	inhibition [3]	IC50 (MCF-10A) [µM]	IC50 (MDA-MB-231 [4]) [µM]	IC50 (MDA-MB-231 [1]; mda-mb-231)	IC50 (MCF7; mcf7)	IC50 ([2]; h357)
O=C1c2ccccc2C(=O)c2c1[nH]c1ccc(F)cc21	7.5	4.8	4.7	5.6	Active					
COc1cc(NC2=CC(=O)c3c(O)cccc3C2=O)cc(OC)c1OC								Not Active	Not Active	Not Active
COc1ccc2c3c([nH]c2c1)C(=O)c1ccccc1C3=O	9.8	7.5	7	7.9						
Cc1ccc(NC2=CC(=O)c3ccccc3C2=O)cc1C	7.7	5.9	5.3	6.4						
O=C1C=C(Nc2nccs2)C(=O)c2ccccc21	7.6	6.3	6.4	7.2						
O=C1C=C(Nc2cccc(Cl)c2)C(=O)c2ccccc21	5.2	4.1	4.2	4						
O=C1c2ccccc2C(=O)c2c1[nH]c1cc(Cl)ccc21	7.3	5.5	4.4	6.5	Active					
COc1ccc2[nH]c3c(c2c1)C(=O)c1ccccc1C3=O	10.5	8.7	8	9.6						
COc1ccc(NC2=CC(=O)c3ccccc3C2=O)cc1OC	6.3	6.2	6.4	6.2	Active					
O=C1C=C(Nc2cnccn2)C(=O)c2ccccc21	9	7	7.2	8.1						
O=C1c2ccccc2C(=O)c2c1[nH]c1cc(F)c(F)cc21								Not Active	Not Active	Not Active
O=C1c2ccccc2C(=O)c2c1[nH]c1ccc(Cl)cc21	6.3	4.4	4.5	4.6	Active					
COc1cccc2c1C(=O)C=C(Nc1ccccc1)C2=O	7.7	6.2	6	6.4						
Cc1ccc(NC2=CC(=O)c3ccccc3C2=O)cc1	5.6	5.3	6.4	5.2	Active					
O=C1C=C(NCCCN2CCOCC2)C(=O)c2ccccc21	7.2	6.4	6.2	6.9						
O=C1C(Nc2ccccc2)=CC(=O)c2c(O)cccc21	4.2	3.7	3.8	4.9						
COc1cc2[nH]c3c(c2c(OC)c1OC)C(=O)c1c(O)cccc1C3=O								Not Active	Not Active	Not Active
O=C1C=C(Nc2ccc(F)cc2)C(=O)c2ccccc21	5.2	4.9	4.1	3.8						
COc1cc(NC2=CC(=O)c3c(OC)cccc3C2=O)cc(OC)c1OC								Not Active	Not Active	Not Active
